Active and inactive are the calls of the source. No cut-off for these calls is given here.
Columns and labels:
[1] = Toxicity in female BALB/c-nu nude mouse xenografted with human KYSE-30 cells assessed as change in lung pathology at 6 to 12 mg/kg, ip administered for 15 days by H and E staining based analysis; assay type: organism-based; settings: in vivo, 360 h, dose 6-12 mg/kg, time 15 day
[2] = tested on: Esophageal squamous cell carcinoma cell; assay: Induction of apoptosis in human Esophageal squamous cell carcinoma cell assessed as increase in caspase-7 activation at 5 to 20 nmol/L incubated for 48 hrs by Western blot analysis; assay type: functional, cell-based; settings: dose 5-20 nmol/L
KYSE-30 [3] = assay: Induction of apoptosis in human KYSE-30 cells assessed as early apoptotic cells at 5 nmol/L incubated for 48 hrs by Annexin V-FITC/PI staining based flow cytometry analysis (reference value: 4.38 %); assay type: functional
[4] = Toxicity in female BALB/c-nu nude mouse xenografted with human KYSE-30 cells assessed as effect on serum blood urea nitrogen level at 6 to 12 mg/kg, ip administered for 15 days by biochemical analysis; assay type: organism-based; settings: in vivo, 360 h, dose 6-12 mg/kg, time 15 day
KYSE-30 [5] = assay: Upregulation of p-Histone H3 level in human KYSE-30 cells at 5 to 20 nmol/L by Western blot analysis; assay type: functional, cell-based; settings: dose 5-20 nmol/L
KYSE-70 cell line [6] = assay: Induction of cell cycle arrest in human KYSE-70 cells assessed as accumulation of cells at G2/M phase at 10 nmol/L by PI staining based flow cytometric analysis; assay type: functional
[7] = Toxicity in female BALB/c-nu nude mouse xenografted with human KYSE-30 cells assessed as change in spleen pathology at 6 to 12 mg/kg, ip administered for 15 days by H and E staining based analysis; assay type: organism-based; settings: in vivo, 360 h, dose 6-12 mg/kg, time 15 day
[8] = tested on: Esophageal squamous cell carcinoma cell; assay: Antiproliferative activity against human Esophageal squamous cell carcinoma cells assessed as reduction in EdU-positive cells at 5 to 20 nmol/L incubated for 48 hrs by EdU staining based inverted fluorescence microscopic analysis; assay type: functional; settings: dose 5-20 nmol/L
KYSE-30 [9] = assay: Induction of apoptosis in human KYSE-30 cells assessed as viable cells at 10 nmol/L incubated for 48 hrs by Annexin V-FITC/PI staining based flow cytometry analysis (reference value: 88.76 %); assay type: functional; settings: read-out: Activity
KYSE-70 cell line [10] = assay: Antiproliferative activity against human KYSE-70 cells assessed as inhibition of cell growth incubated for 48 hrs by MTT assay; assay type: functional, cell-based; settings: KYSE-70, 48 h
KYSE-70 cell line [11] = assay: Induction of apoptosis in human KYSE-70 cells assessed as early apoptotic cells at 5 nmol/L incubated for 48 hrs by Annexin V-FITC/PI staining based flow cytometry analysis (reference value: 1.78%); assay type: functional
[12] = Toxicity in female BALB/c-nu nude mouse xenografted with human KYSE-30 cells assessed as effect on serum uric acid level at 6 to 12 mg/kg, ip administered for 15 days by biochemical analysis; assay type: organism-based; settings: in vivo, 360 h, dose 6-12 mg/kg, time 15 day
KYSE-30 [13] = assay: Inhibition of cell migration in human KYSE-30 cells at 2 to 6 nmol/L incubated upto 48 hrs by wound healing assay; assay type: functional, cell-based; settings: dose 2-6 nmol/L
[14] = Toxicity in female BALB/c-nu nude mouse xenografted with human KYSE-30 cells assessed as change in liver pathology at 6 to 12 mg/kg, ip administered for 15 days by H and E staining based analysis; assay type: organism-based; settings: in vivo, 360 h, dose 6-12 mg/kg, time 15 day
KYSE-30 [15] = tested on: KYSE-30
Description: Antiproliferative activity against human KYSE-30 cells assessed as inhibition of cell proliferation incubated for 48 hrs by MTT assay

KYSE-30 [16] = assay: Antitumor activity against human KYSE-30 cells xenografted in female BALB/c-nu nude mouse assessed as reduction in tumor weight at 6 to 12 mg/kg, ip administered daily for 15 days; assay type: functional, organism-based; settings: dose 6-12 mg/kg, time 15.0 day
KYSE-30 [17] = assay: Induction of morphological changes in human KYSE-30 cells assessed as increase in proportion of dead cells at 5 to 20 nmol/L incubated for 48 hrs by Calcein AM/PI staining based inverted fluorescence microscopic analysis; assay type: functional, cell-based; settings: dose 5-20 nmol/L
KYSE-30 [18] = assay: Induction of apoptosis in human KYSE-30 cells assessed as late apoptotic cells at 20 nmol/L incubated for 48 hrs by Annexin V-FITC/PI staining based flow cytometry analysis (reference value: 5.27 %); assay type: functional
KYSE-270 = assay: Antiproliferative activity against human KYSE-270 cells assessed as inhibition of cell growth incubated for 48 hrs by MTT assay; assay type: functional, cell-based; settings: KYSE-270, 48 h
KYSE-70 cell line [19] = assay: Induction of apoptosis in human KYSE-70 cells assessed as early apoptotic cells at 20 nmol/L incubated for 48 hrs by Annexin V-FITC/PI staining based flow cytometry analysis (reference value: 1.78%); assay type: functional
KYSE-450 = assay: Antiproliferative activity against human KYSE-450 cells assessed as inhibition of cell growth incubated for 48 hrs by MTT assay; assay type: functional, cell-based; settings: KYSE-450, 48 h
KYSE-70 cell line [20] = assay: Induction of apoptosis in human KYSE-70 cells assessed as late apoptotic cells at 10 nmol/L incubated for 48 hrs by Annexin V-FITC/PI staining based flow cytometry analysis (reference value: 3.01%); assay type: functional
KYSE-70 cell line [21] = assay: Inhibition of cell migration in human KYSE-70 cells at 2 to 6 nmol/L incubated upto 48 hrs by wound healing assay; assay type: functional, cell-based; settings: dose 2-6 nmol/L
[22] = Cytotoxicity against HUVEC cells assessed as inhibition of cell growth incubated for 48 hrs by MTT assay; assay type: toxicity, cell-based; settings: human
KYSE-30 [23] = assay: Induction of apoptosis in human KYSE-30 cells assessed as late apoptotic cells at 5 nmol/L incubated for 48 hrs by Annexin V-FITC/PI staining based flow cytometry analysis (reference value: 5.27 %); assay type: functional
[24] = tested on: Esophageal squamous cell carcinoma cell; assay: Induction of apoptosis in human Esophageal squamous cell carcinoma cell assessed as […] of Bax level at 5 to 20 nmol/L incubated for 48 hrs by Western blot analysis; assay type: functional, cell-based; settings: dose 5-20 nmol/L
Tubulin (Homo sapiens) [25] = target: T1, Tubulin (Homo sapiens) (UniProt P68371+Q9H4B7+P0DPH7+P68366+Q13509+Q71U36+P04350+Q3ZCM7+P07437+P68363+Q9BQE3+Q6PEY2+Q13885+Q9BVA1+Q9BUF5); assay: Inhibition of tubulin polymerization in human KYSE-30 cells assessed as multinucleation of cells at 5 to 20 nmol/L incubated for 24 hrs by DAPI staining based fluorescence microscopic analysis; assay type: cell-based; settings: dose 5-20 nmol/L
Tubulin (Homo sapiens) [26] = target: T1, Tubulin (Homo sapiens); assay: Inhibition of tubulin polymerization in human KYSE-70 cells assessed as reduction in filamentous microtubule structure formation at 5 to 20 nmol/L incubated for 24 hrs by DAPI staining based fluorescence microscopic analysis; assay type: cell-based; settings: dose 5-20 nmol/L
KYSE-30 [27] = assay: Inhibition of human KYSE-30 cells proliferation at 5 to 20 nmol/L incubated for 48 hrs by real time cellular analysis; assay type: functional, cell-based; settings: dose 5-20 nmol/L
KYSE-70 cell line [28] = assay: Inhibition of human KYSE-70 cells proliferation at 5 to 20 nmol/L incubated for 48 hrs by real time cellular analysis; assay type: functional, cell-based; settings: dose 5-20 nmol/L
KYSE-30 [29] = assay: Induction of cell cycle arrest in human KYSE-30 cells assessed as accumulation of cells at G2/M phase at 10 nmol/L by PI staining based flow cytometric analysis; assay type: functional
[30] = target: Tubulin beta (Homo sapiens) (UniProt P68371+Q9H4B7+Q13509+P04350+Q3ZCM7+P07437+Q13885+Q9BVA1+Q9BUF5+A6NNZ2); assay: Binding affinity to beta-tubulin colchicine binding site in human KYSE-70 cells assessed as inhibition of EBI-beta-tubulin adduct band formation at 0 to 10 micromol/L preincubated for 2 hrs followed by EBI addition measured after 2 hrs by EBI competition based Western blotting analysis; assay type: cell-based; settings: dose 0-10 µmol/L, time 4.0 hrs

IC50 (KYSE-30 [15]): 13.1 nM
inhibition (Tubulin (Homo sapiens) [25]): Active
inhibition (Tubulin (Homo sapiens) [26]): Active
Activity [30]: Active
SMILES: COc1ccc(-c2cnoc2-c2cc(C)nc3ccccc23)cc1
Activity [1]: Non-Toxic
Activity [2]: Active
Activity (KYSE-30 [3]): 46.64%
Activity [4]: Non-Toxic
Activity (KYSE-30 [5]): Active
Activity (KYSE-70 cell line [6]): Active
Activity [7]: Non-Toxic
Activity [8]: Active
viability at 0.01 µM (KYSE-30 [9]): 37.5%
IC50 (KYSE-70 cell line [10]): 7.79 nM
Activity (KYSE-70 cell line [11]): 8.24%
Activity [12]: Non-Toxic
inhibition (KYSE-30 [13]): Active
Activity [14]: Non-Toxic
Activity (KYSE-30 [16]): Active
Activity (KYSE-30 [17]): Active
Activity (KYSE-30 [18]): 10.13%
IC50 (KYSE-270): 41.8 nM
Activity (KYSE-70 cell line [19]): 30.31%
IC50 (KYSE-450): 19.2 nM
Activity (KYSE-70 cell line [20]): 14.3%
inhibition (KYSE-70 cell line [21]): Active
IC50 at 48 h [22]: > 710 nM
Activity (KYSE-30 [23]): 11.99%
Activity [24]: Active
inhibition (KYSE-30 [27]): Active
inhibition (KYSE-70 cell line [28]): Active
Activity (KYSE-30 [29]): Active

From ChEMBL document CHEMBL5608174, “Synthesis and biological evaluation of 4-phenyl-5-quinolinyl substituted isoxazole analogues as potent cytotoxic and tubulin polymerization inhibitors against ESCC” (Eur J Med Chem, 2024)
